Common to all, as to assay: cells
What all share (design): species or system NCI human tumour cell line panel; NCI one-dose anti-proliferative screen, human tumour cell line panel, growth inhibition percent (GI%)

One assay deals with U251. To be noted: Homo sapiens, U-251; growth inhibition (GI%), single dose. The method, then: (§1) Ten of the newly synthesised 1,2,3-triazolo benzenesulfonamide derivatives were selected by NCI (Bethesda, MD) for evaluating their anti-proliferative activity. The selected compounds were subjected to a primary in vitro one-dose ([…]) anti-proliferative assay against 57 human tumour cell lines following the previously reported method[30] and their obtained growth inhibition percent (GI%) are presented in Table 2. A subset of ten triazolo-benzenesulfonamides (3, 5, 6, 7, 9, 11, 16–18, and 20) were selected and subjected to an in vitro anti-proliferative screening against a panel of 57 cancer cell lines at NCI at an initial high dose ([…]). The human cell lines used were derived from nine cancer types: leukaemia, lung, colon, CNS, melanoma, ovarian, renal, prostate and breast cancers.

The test system of a further assay is PC-3. To be noted: Homo sapiens, PC-3; growth inhibition (GI%), single dose. The method, then: as §1
Another assay relates to NCI-H226. To be noted: Homo sapiens, NCI-H226; growth inhibition (GI%), single dose. The method, then:
as §1

A further assay relates to HOP-62. The note with it: Homo sapiens, HOP-62; growth inhibition (GI%), single dose. The method, then:
as §1

A further assay has as its system HL-60(TB). The note with it: Homo sapiens, HL-60; growth inhibition (GI%), single dose. The method, then:
as §1

Another assay concerns UACC-257. The note with it: Homo sapiens, UACC-257; growth inhibition (GI%), single dose. The method, then: as §1
In the next assay the test system is HS 578T. To be noted: Homo sapiens, Hs-578T; growth inhibition (GI%), single dose. The method, then:
as §1

In a further assay the test system is UO-31. The note with it: Homo sapiens, UO-31; growth inhibition (GI%), single dose. The method, then:
as §1

For another assay, the system named is SK-OV-3. The note with it: Homo sapiens, SK-OV-3; growth inhibition (GI%), single dose. The method, then: as §1
The subject of the next assay is MCF7. To be noted: Homo sapiens, MCF7; growth inhibition (GI%), single dose. The method, then:
as §1

The test system of the next assay is A498. To be noted: Homo sapiens, A498; growth inhibition (GI%), single dose. The method, then: as §1
Another assay deals with A549/ATCC. To be noted: Homo sapiens, A549; growth inhibition (GI%), single dose. The method, then:
as §1

In a further assay the test system is OVCAR-8. To be noted: Homo sapiens, OVCAR-8; growth inhibition (GI%), single dose. The method, then: as §1
For the next assay, the system named is HT29. To be noted: Homo sapiens, HT-29; growth inhibition (GI%), single dose. The method, then: as §1
The test system of another assay is T-47D. To be noted: Homo sapiens, T47D; growth inhibition (GI%), single dose. The method, then:
as §1

The test system of the next assay is HCT-116. The note with it: Homo sapiens, HCT-116; growth inhibition (GI%), single dose. The method, then:
as §1

The subject of a further assay is NCI-H522. To be noted: Homo sapiens, NCI-H522; growth inhibition (GI%), single dose. The method, then: as §1
The next assay has as its system RPMI-8226. The note with it: Homo sapiens, RPMI-8226; growth inhibition (GI%), single dose. The method, then:
as §1

For another assay, the system named is SR. The note with it: Homo sapiens, SR; growth inhibition (GI%), single dose. The method, then:
as §1

For another assay, the system named is NCI-H322M. The note with it: Homo sapiens, NCI-H322M; growth inhibition (GI%), single dose. The method, then: as §1

Structures are written as SMILES.

What is called inhibition is the percentage by which the read-out fell short of the control. High values mean strong suppression, low ones little suppression.

Turning to `CN(C)c1ccc(-c2nc3c(nnn3-c3ccc(S(N)(=O)=O)cc3)c(N)c2C#N)cc1` [compound 17, 4-(7-amino-6-cyano-5-(4-(dimethylamino)phenyl)-3H-[1,2,3]triazolo[4,5-b]pyridin-3-yl)benzenesulfonamide], the inhibition at 10 µM was 12.6% in the assay with U251; 13.8% with PC-3; 16.9% in the assay on NCI-H226; 21.7% in the assay on HOP-62; 12.5% in the assay on HL-60(TB); 8.4% with UACC-257. The inhibition at 10 µM with HS 578T is 2.9%; in the assay with UO-31 it was 29.9%; in the assay on SK-OV-3 it was 12.3%; in the assay with MCF7, 7.3%; with A498, 1.8%; in the assay on A549/ATCC, 16.3%. Further, the inhibition at 10 µM in the assay on OVCAR-8 is 11.4%; with HT29, 3.3%; with T-47D it was 5.2%; in the assay on HCT-116, 3.6%; with NCI-H522, 14.8%; with RPMI-8226 it was 12.5%. In addition, the inhibition at 10 µM with SR stood at 3.2%; in the assay with NCI-H322M, 3.9%.

Take `N#Cc1nnn(-c2ccc(S(N)(=O)=O)cc2)c1N` [compound 3, 3]: the inhibition at 10 µM in the assay on U251 was 0.6%; in the assay with PC-3, 8.3%; with NCI-H226, 5.2%; in the assay with HOP-62, 8%; in the assay on HL-60(TB), 6.5%; in the assay with UACC-257, 10.2%. Moreover, the inhibition at 10 µM is 5.9% in the assay with HS 578T; 14.5% in the assay on UO-31; 4.6% in the assay on SK-OV-3; 5.5% with MCF7; 13.6% in the assay with A498; 4.2% in the assay with A549/ATCC. In addition, the inhibition at 10 µM in the assay on OVCAR-8 was found to be 4.6%; in the assay with HT29, 9.4%; in the assay with T-47D it was 5.1%; in the assay on HCT-116 it was 7.1%; in the assay on NCI-H522, 9.7%; in the assay on RPMI-8226, 8.5%. Also, the inhibition at 10 µM with SR came to 3.5%; with NCI-H322M, 0%.
